Measurements: the NIST ThermoML archive (doi:10.1016/j.fluid.2017.01.019)

Experiment: xn = mol fraction of the nth substance listed
Conditions: 100 kPa, Liquid; for speed of sound: Frequency=3 MHz, Sing-around technique in a fixed-path interferometer; for viscosity: Falling or rolling sphere viscometry; for mass density: Vibrating tube method

CCOS(=O)(=O)[O-].CCn1cc[n+](C)c1 [1-ethyl-3-methylimidazolium ethyl sulfate] + CO
Conditions | mass density [kg/m3] | speed of sound [m/s] | viscosity [mPa·s]
293.15 K, x1 = 0.1067 | – | 1292.5 | –
293.15 K, x1 = 0.1996 | – | 1399.1 | –
293.15 K, x1 = 0.2919 | – | 1473.1 | –
293.15 K, x1 = 0.4021 | – | 1533.8 | –
293.15 K, x1 = 0.4918 | – | 1569.6 | –
293.15 K, x1 = 0.609 | – | 1606.4 | –
293.15 K, x1 = 0.7095 | – | 1632.8 | –
293.15 K, x1 = 0.8014 | – | 1652.9 | –
293.15 K, x1 = 0.904 | – | 1667.9 | –
293.15 K, x1 = 1 | – | 1682.3 | –
298.15 K, x1 = 0.1067 | 961.555 | – | 1.45
298.15 K, x1 = 0.1996 | 1042.5 | – | 3.84
298.15 K, x1 = 0.2919 | 1095.83 | – | 4.57
298.15 K, x1 = 0.4021 | 1138.91 | – | 7.83
298.15 K, x1 = 0.4918 | 1164.2 | – | 12.99
298.15 K, x1 = 0.609 | 1188.99 | – | 19.97
298.15 K, x1 = 0.7095 | 1204.69 | – | 31.61
298.15 K, x1 = 0.8014 | 1216.59 | – | 45.92
298.15 K, x1 = 0.904 | 1227.45 | – | 65.82
298.15 K, x1 = 1 | 1236.33 | – | 96.21
303.15 K, x1 = 0.1067 | 957.326 | 1278.1 | 1.35
303.15 K, x1 = 0.1996 | 1038.4 | 1386.3 | 3.29
303.15 K, x1 = 0.2919 | 1092.01 | 1459.8 | 4.15
303.15 K, x1 = 0.4021 | 1135.31 | 1522.6 | 7.09
303.15 K, x1 = 0.4918 | 1160.82 | 1556.9 | 11.38
303.15 K, x1 = 0.609 | 1185.52 | 1592.1 | 17.26
303.15 K, x1 = 0.7095 | 1201.31 | 1620.4 | 26.48
303.15 K, x1 = 0.8014 | 1213.11 | 1639.1 | 37.65
303.15 K, x1 = 0.904 | 1224.02 | 1655.7 | 53.03
303.15 K, x1 = 1 | 1232.93 | 1670 | 75.89
308.15 K, x1 = 0.1067 | 952.925 | 1263.8 | 1.26
308.15 K, x1 = 0.1996 | 1034.33 | 1372.7 | 2.8
308.15 K, x1 = 0.2919 | 1088.21 | 1446.5 | 3.78
308.15 K, x1 = 0.4021 | 1131.6 | 1509.8 | 6.42
308.15 K, x1 = 0.4918 | 1157.42 | 1544.4 | 10.02
308.15 K, x1 = 0.609 | 1182.08 | 1579.7 | 15.14
308.15 K, x1 = 0.7095 | 1198 | 1608.1 | 22.48
308.15 K, x1 = 0.8014 | 1209.7 | 1627 | 31.44
308.15 K, x1 = 0.904 | 1220.61 | 1643.6 | 43.71
308.15 K, x1 = 1 | 1229.57 | 1657.9 | 60.73
313.15 K, x1 = 0.1067 | 948.697 | 1249.6 | 1.17
313.15 K, x1 = 0.1996 | 1030.41 | 1359.3 | 2.47
313.15 K, x1 = 0.2919 | 1084.41 | 1433.5 | 3.48
313.15 K, x1 = 0.4021 | 1127.88 | 1497.1 | 5.85
313.15 K, x1 = 0.4918 | 1153.83 | 1531.8 | 8.91
313.15 K, x1 = 0.609 | 1178.56 | 1567.3 | 13.32
313.15 K, x1 = 0.7095 | 1194.76 | 1596 | 19.31
313.15 K, x1 = 0.8014 | 1206.29 | 1615 | 26.51
313.15 K, x1 = 0.904 | 1217.22 | 1631.6 | 36.28
313.15 K, x1 = 1 | 1226.21 | 1645.9 | 49.38
318.15 K, x1 = 0.1067 | 944.458 | 1235.4 | 1.09
318.15 K, x1 = 0.1996 | 1026.64 | 1345.8 | 2.23
318.15 K, x1 = 0.2919 | 1080.74 | 1420.5 | 3.21
318.15 K, x1 = 0.4021 | 1124.28 | 1484.5 | 5.34
318.15 K, x1 = 0.4918 | 1150.3 | 1519.3 | 7.96
318.15 K, x1 = 0.609 | 1175.06 | 1555 | 11.78
318.15 K, x1 = 0.7095 | 1191.48 | 1584 | 16.79
318.15 K, x1 = 0.8014 | 1202.9 | 1603.1 | 22.62
318.15 K, x1 = 0.904 | 1213.85 | 1619.7 | 30.46
318.15 K, x1 = 1 | 1222.87 | 1634.1 | 40.93
323.15 K, x1 = 0.1067 | 940.54 | 1221.4 | 1.02
323.15 K, x1 = 0.1996 | 1022.72 | 1332.3 | 1.95
323.15 K, x1 = 0.2919 | 1077.09 | 1407.6 | 2.96
323.15 K, x1 = 0.4021 | 1120.78 | 1471.9 | 4.85
323.15 K, x1 = 0.4918 | 1146.92 | 1506.8 | 7.08
323.15 K, x1 = 0.609 | 1171.65 | 1542.8 | 10.54
323.15 K, x1 = 0.7095 | 1188.29 | 1572.1 | 14.68
323.15 K, x1 = 0.8014 | 1199.51 | 1591.3 | 19.5
323.15 K, x1 = 0.904 | 1210.5 | 1607.9 | 25.98
323.15 K, x1 = 1 | 1219.54 | 1622.3 | 33.82
